# Assay results from patent publication US6444614B2, “Aspartic acid derivative-containing compositions and use thereof in stimulating and/or regulating plant and plant precursor growth” (LidoChem Inc., priority 2000, dated 2002).
# Structures can show the parent of a compound that is named as a salt.
# Assays:
# Mexican Heather plants = experiment: Soil application of IDS and/or EDDS free acids to Mexican heather plants (Example IV); assay type: in vivo, Cuphea hyssopifolia Kunth.; conditions: 200 ppm free acid; for root mass versus vegetative growth: within 10 mm of each plant
# Procedure: Four sets of six Mexican Heather plants each were placed on trays without transplanting. 0.2 gm/liter stock solutions of IDS and EDDS free acids prepared according to Example III, supra, were used, in three different treatments (EDDS alone, IDS alone and a 50:50 mixture of EDDS and IDS) to treat the three sets of plants as set forth in Table IV, attached, by placing the solutions into the soil within 10 mm. of each of the plants. A fourth set was treated with distilled water (the ‘control’ set).
# [1] = tested on: germinated sweet corn seeds; experiment: Germinated sweet corn seeds on water plates treated with tetra-sodium salt of EDDS (Example I); assay type: in vivo, Zea mays L. var. saccharata; conditions: for germinating-seed stimulating concentration: germinating sweet corn seed, treating solution; for NUMBER OF SEED GERMINATED AND SURVIVED: Sweet corn, 10 seeds per plate
# Procedure: (§1) Styrofoam plates were each charged with 80 ml. water. The plates are titled: (a) the ‘control’ plates; (b) the ‘Treatment 1’ plates; and (c) the ‘Treatment 2’ plates.
# (§2) Into the ‘control’ plates, the ‘Treatment 1’ plates and the ‘Treatment 2’ plates were placed, at the loading of 10 seeds per plate, germinated sweet corn seeds, germinated field corn seeds, germinated snap bean, seeds, germinated cantaloupe melon seeds and germinated soy bean seeds.
# (§3) The ‘Treatment 1’ plates were then each treated with 0.1 ml. of a 38% aqueous solution of the tetra-sodium salt of EDDS (having the structure as set forth in FIG. 15), or 0.000475 gm./plate, or 475 ppm per plate.
# (§4) The ‘Treatment 2’ plates were then each treated with 1 ml. of a 38% aqueous solution of the tetra-odium salt of EDDS, or 0.00475 gm./plate or 4750 ppm per plate.
# (§5) No EDDS salt was added to the ‘control’ plate.
# (§6) Over a period of 9 days, each plate had distilled water added thereto, as needed, in order to make up for the evaporation of the water during the 9 day period.
# (§7) 9 days after the trial commenced, the number of germinated seeds which survived were as set forth in attached Table I.
# sweet corn seeds = experiment: Sweet corn seeds on water plates treated with IDS salt alone or with EDDS salt (Example II); assay type: in vivo, Zea mays L. var. saccharata; conditions: 9 day period; IDS salt 4630 or 463 ppm per plate, or IDS + EDDS salt mixture (Treatment 3)
# Procedure: Styrofoam plates were each charged with 80 ml. water. The plates are titled: (a) the ‘control’ plates; (b) the ‘Treatment 1’ plates; (c) the ‘Treatment 2’ plates and (d) the ‘Treatment 3’ plates.
# Into the ‘control’ plates, the ‘Treatment 1’ plates, the ‘Treatment 2’ plates and the ‘Treatment 3’ plates, were placed, at a loading of 6 seeds per plate, sweet corn seeds, field corn seeds, cantaloupe melon seeds and soy bean seeds.
# The ‘Treatment 1’ plates were then each treated with 1 ml. of a 37% solution of the tri-potassium salt of IDS (having the structure as set forth in FIG. 17), or 0.00463 gm./plate or 4630 ppm per plate.
# The ‘Treatment 2’ plates were then each treated with 0.1 ml. of a 37% solution of the tri-potassium salt of IDS, or 0.000463 gm./plate, or 463 ppm per plate.
# The ‘Treatment 3’ plates were then each treated with a mixture 0.5 ml. of a 37% solution of the tri-potassium salt of IDS and 0.5 ml. of a 38% solution of the tetra-sodium salt of EDDS, or 0.000231 gm/plate of the IDS salt and 0.000238 gm./plate of the EDDS salt.
# No EDDS or IDS salts were added to the control plate.
# Over a period of 9 days, each plate had distilled water added thereto, as needed, in order to make up for the evaporation of water during the 9 day period.
# 9 days after the trial commenced, the number of germinated seeds which survived were as set forth in attached Table II.
# [2] = tested on: germinated snap bean seeds; experiment: Germinated snap bean seeds on water plates treated with tetra-sodium salt of EDDS (Example I); assay type: in vivo, Phaseolus vulgaris L.; conditions: Snap beans, 10 seeds per plate, after 9 days
# Procedure: as §1, §2, §3, §4, §5, §6, §7
# [3] = tested on: germinated field corn seeds; experiment: Germinated field corn seeds on water plates treated with tetra-sodium salt of EDDS (Example I); assay type: in vivo, Zea mays L.; conditions: after 9 days; for NUMBER OF SEED GERMINATED AND SURVIVED: Field corn, 10 seeds per plate
# Procedure: as §1, §2, §3, §4, §5, §6, §7
# [4] = tested on: germinated cantaloupe melon seeds; experiment: Germinated cantaloupe melon seeds on water plates treated with tetra-sodium salt of EDDS (Example I); assay type: in vivo; conditions: 10 seeds per plate, after 9 days
# Procedure: as §1, §2, §3, §4, §5, §6, §7
# Lettuce seeds = conditions: cultured in a fertilizer soln. contg. 100 ppm; cited from earlier work
# [5] = Treatment 1 (EDDS at 0.1 ml Per liter; 475 ppm per plate)
# [6] = Treatment 2 (EDDS at 1 ml Per liter; 4750 ppm per plate)
compound,measurement,setting,value
"O=C(O)CC(NCCNC(CC(=O)O)C(=O)O)C(=O)O (mixture of isomers) [EDDS free acid, N,N′-1,2-ethanediylbis-aspartic acid]",leaf position and internode lengths at the end of the experiment,Mexican Heather plants,the plant leaves are lower on the main stem and internode lengths are shortened
same,root mass versus vegetative growth,Mexican Heather plants,promoted a greater root mass at the expense of vegetative growth
"O=C(O)CC(N[C@@H](CC(=O)O)C(=O)O)C(=O)O (stereo partly shown) [tri-potassium salt of IDS, N-(1,2-dicarboxyethyl)aspartic acid]",germinating-seed stimulating concentration,[1],about 1×10^−4 gram moles per liter
same,"germination and uniformity of seedling growth, sweet corn seeds",sweet corn seeds,germinated and the resulting seedlings started to grow more uniformly
"O=C(O)CC(NCCNC(CC(=O)O)C(=O)O)C(=O)O (mixture of isomers) [tetra-sodium salt of EDDS, N,N′-1,2-ethanediylbis-aspartic acid]",NUMBER OF SEED GERMINATED AND SURVIVED,"[1]; Treatment 1 (EDDS at 0.1 ml Per liter; 475 ppm per plate), after 9 days",10
same,NUMBER OF SEED GERMINATED AND SURVIVED,"[1]; Treatment 2 (EDDS at 1 ml Per liter; 4750 ppm per plate), after 9 days",7
same,"germination and growth of the germinated sweet corn seeds, as compared with the control","[1]; Treatment 1 plates (475 ppm per plate), after 9 days",uniform germination and growth
same,germination and growth of the sweet corn,"[1]; Treatment 2 plates (4750 ppm per plate), after 9 days",inhibition of the germination and growth
same,action on germinating seed,[1]; at a concentration of about 10×10^−4 gram moles per liter,acts as a germinating seed growth regulator
same,germinating-seed stimulating concentration,[1],about 1×10^−4 gram moles per liter
same,NUMBER OF SEED GERMINATED AND SURVIVED,[2]; [5],5
same,NUMBER OF SEED GERMINATED AND SURVIVED,[2]; [6],1
same,NUMBER OF SEED GERMINATED AND SURVIVED,[3]; [5],9
same,NUMBER OF SEED GERMINATED AND SURVIVED,[3]; [6],4
same,germination and growth of the field corn,[3]; Treatment 2 plates (4750 ppm per plate),inhibition of the germination and growth
same,NUMBER OF SEED GERMINATED AND SURVIVED,[4]; [5],1
same,NUMBER OF SEED GERMINATED AND SURVIVED,[4]; [6],0
"O=C(O)C[C@H](NCCN[C@@H](CC(=O)O)C(=O)O)C(=O)O [S,S-ethylenediamine-N,N-disuccinic acid]",plant growth of lettuce,Lettuce seeds,good plant growth
"O=C(O)CC(N[C@@H](CC(=O)O)C(=O)O)C(=O)O (stereo partly shown) [IDS free acid, N-(1,2-dicarboxyethyl)aspartic acid]",root mass versus vegetative growth,Mexican Heather plants,"promoted a greater root mass at the expense of vegetative growth, although to a significantly lesser extent than done using EDDS"
